In brackets after ≈: the same amount, converted by molar mass. Like-named read-outs stand apart in the source and are kept apart here.
Experiments:
Type in all cases: cell-based
[1] = test system: Streptococcus pneumoniae (ATCC6305); test: Microtitre plate assay, IC90 determination, SPN 6305; conditions: 90% inhibitory concentration for bacterial growth, resazurin
Protocol: (§1) The bacteria used in this study were grown overnight in flasks containing 100 ml Mueller-Hinton Broth (Becton Dickinson—cat. no. 275730) in sterile de-ionized water, with shaking, at 37° C. Stocks (0.5 ml/tube) were stored at −70° C. until use. Bacteria titrations were performed in microtiter plates to detect the TCID50, in which the TCID50 represents the dilution that gives rise to bacterial growth in 50% of inoculated cultures.
(§2) In general, an inoculum level of approximately 100 TCID50 was used for susceptibility testing.
(§3) Flat-bottom, sterile 96-well plastic microtiter plates were filled with 180 μl of sterile deionized water, supplemented with 0.25% BSA. Subsequently, stock solutions (7.8× final test concentration) of compounds were added in 45 μl volumes in column 2 Serial five-fold dilutions (45 μl in […]) were made directly in the microtiter plates from column 2 to reach column 11. Untreated control samples with (column 1) and without (column 12) inoculum were included in each microtiter plate. Depending on the bacteria type, approximately 10 to 60 CFU per well of bacteria inoculum (100 TCID50), in a volume of 100 μl in 2.8× Mueller-Hinton broth medium, was added to the rows A to H, except column 12. The same volume of broth medium without inoculum was added to column 12 in row A to H. The cultures were incubated at 37° C. for 24 hours under a normal atmosphere (incubator with open air valve and continuous ventilation). At the end of incubation, one day after inoculation, the bacterial growth was quantitated fluorometrically. Therefore resazurin (0.6 mg/ml) was added in a volume of 20 μl to all wells 3 hours after inoculation, and the plates were re-incubated overnight. A change in colour from blue to pink indicated the growth of bacteria. The fluorescence was read in a computer-controlled fluorometer (Cytofluor Biosearch) at an excitation wavelength of 530 nm and an emission wavelength of 590 nm. The % growth inhibition achieved by the compounds was calculated according to standard methods.

M. Smegmatis ATCC607 = test: In-vitro anti-bacterial activity against strain M. smegmatis ATCC607; conditions: for IC90: Mycolicibacterium smegmatis
Protocol: Flat-bottom, sterile 96-well plastic microtiter plates were filled with 180 μl of sterile deionized water, supplemented with 0.25% BSA. Subsequently, stock solutions (7.8× final test concentration) of compounds were added in 45 μl volumes to a series of duplicate wells in column 2 so as to allow evaluation of their effects on bacterial growth. Serial five-fold dilutions (45 μl in 180 μl) were made directly in the microtiter plates from column 2 to 11 using a customised robot system (Zymark Corp., Hopkinton, Mass.). Pipette tips were changed after every 3 dilutions to minimize pipetting errors with high hydrophobic compounds. Untreated control samples with (column 1) and without (column 12) inoculum were included in each microtiter plate. Approximately 250 CFU per well of bacteria inoculum, in a volume of 100 μl in 2.8× Mueller-Hinton broth medium, was added to the rows A to H, except column 12. The same volume of broth medium without inoculum was added to column 12 in row A to H. The cultures were incubated at 37° C. for 48 hours in a humidified 5% CO2 atmosphere (incubator with open air valve and continuous ventilation). At the end of incubation, two days after inoculation, the bacterial growth was quantitated fluorometrically. Therefore Alamar Blue (10×) was added to all wells in a volume of 20 μl and plates were incubated for another 2 hours at […]
The fluorescence was read in a computer-controlled fluorometer (Cytofluor, Biosearch) at an excitation wavelength of 530 nm and an emission wavelength of 590 nm (gain 30).

[2] = test system: Staphylococcus aureus (ATCC29213); test: Microtitre plate assay, IC90 determination, STA 29213
Protocol: as §1, §2, §3

[3] = Streptococcus pneumoniae ATCC6305, read-out: IC90 (μg/ml) SPN 6305
[4] = ATCC607, 90% inhibitory concentration for bacterial growth, 48 hours, Alamar Blue fluorescence, read-out: M. smegmatis IC90
[5] = Streptococcus pneumoniae, ATCC6305, read-out: IC90 (μg/ml) SPN 6305, Streptococcus pneumoniae ATCC6305
[6] = Staphylococcus aureus, ATCC29213, read-out: IC90 (μg/ml) STA 29213
[7] = ATCC607, 48 h, read-out: M. smegmatis IC90 (μg/ml), 90% inhibitory concentration for bacterial growth, Alamar Blue fluorescence
[8] = Streptococcus pneumoniae ATCC6305
[9] = Staphylococcus aureus ATCC29213, 90% inhibitory concentration for bacterial growth, resazurin
[10] = 90% inhibitory concentration for bacterial growth, 48 hours, Alamar Blue fluorescence
[11] = Staphylococcus aureus ATCC29213, 90% inhibitory concentration for bacterial growth, resazurin, read-out: IC90 (μg/ml) STA 29213

With `COc1ccc(/C(CCCCN2CCCCC2)=C(/c2ccc(OC)cc2)c2cnc3ccccc3c2)cc1` [Compound 59] the IC90 [1, 3] was 11.3 µg/mL (≈ 22.4 µM) and the IC90 (M. Smegmatis ATCC607; [4]) was 8.03 µg/mL (≈ 15.8 µM).
`CSc1nc2ccc(Br)cc2cc1/C(=C(/CCN(C)C)c1ccccc1)c1ccccc1` [Compound 2] gave an IC90 [1, 5] of 1.59 µg/mL (≈ 3.16 µM), an IC90 [2, 6] of 7.98 µg/mL (≈ 15.8 µM) and an IC90 (M. Smegmatis ATCC607; [7]) of 1.59 µg/mL (≈ 3.16 µM).
`Clc1ccc(/C(CCCCN2CCCCC2)=C(/c2ccccc2)c2cnc3ccccc3c2)cc1` [Compound 50] showed an IC90 [1, 5] of 9.6 µg/mL (≈ 20 µM) and an IC90 (M. Smegmatis ATCC607; [7]) of 1.92 µg/mL (≈ 3.99 µM).
Compound `COc1ccc(/C(CCCCN2CCCCC2)=C(/c2ccc(C#N)cc2)c2cnc3ccccc3c2)cc1` [Compound 56] has an IC90 [1, 3] of 12.6 µg/mL (≈ 25.1 µM) and an IC90 (M. Smegmatis ATCC607; [4]) of 7.95 µg/mL (≈ 15.8 µM).
Work on `Clc1ccc(/C(=C(\CCCCN2CCCCC2)c2ccccc2)c2cnc3ccccc3c2)cc1` [Compound 19] yielded an IC90 (M. Smegmatis ATCC607; [7]) of 1.52 µg/mL (≈ 3.16 µM).
For `COc1nc2ccc(F)cc2cc1C(C(=CCN(C)C)c1ccccc1)c1ccccc1` (racemic) [Compound 24], the “IC90 (μg/ml) SPN 6305” value [1, 8] was 1.51 µg/mL (≈ 3.54 µM), the “IC90 (μg/ml) STA 29213” value [2, 9] was 33.88 µg/mL (≈ 79.4 µM) and the “M. smegmatis IC90” value (M. Smegmatis ATCC607; [10]) was 5.37 µg/mL.
Work on `COc1nc2ccc(-c3ccco3)cc2cc1C(/C(=C/CN(C)C)c1cccc2ccccc12)c1ccccc1` (stereo not shown) [Compound 21] yielded an IC90 [1, 5] of 23.4 µg/mL (≈ 44.7 µM), an IC90 [2, 6] of 41.7 µg/mL (≈ 79.4 µM) and an IC90 (M. Smegmatis ATCC607; [7]) of 14.8 µg/mL (≈ 28.2 µM).
`COc1nc2ccc(Br)cc2cc1C(/C(=C/Cc1ccccc1)CCN(C)C)c1ccccc1` (stereo not shown) [Compound 7] gave an IC90 [1, 3] of 2.05 µg/mL (≈ 3.98 µM), an IC90 [2, 11] of 1.63 µg/mL (≈ 3.16 µM) and an IC90 (M. Smegmatis ATCC607; [4]) of 1.63 µg/mL (≈ 3.16 µM).
`COc1nc2ccc(-c3cccnc3)cc2cc1C(=C(CCN(C)C)c1cccc2ccccc12)c1ccccc1` [Compound 41] was tested, and the “IC90 (μg/ml) SPN 6305” value [1, 8] was 9.53 µg/mL (≈ 17.8 µM), the “IC90 (μg/ml) STA 29213” value [2, 9] was 8.49 µg/mL (≈ 15.8 µM) and the “M. smegmatis IC90” value (M. Smegmatis ATCC607; [10]) was 3.79 µg/mL.
In the case of `COc1nc2ccc(Br)cc2cc1C(=C(CCN1CCN(C)CC1)c1ccccc1)c1ccccc1` (mixture of isomers) [Compound 45], the “IC90 (μg/ml) SPN 6305” value [1, 8] is reported as 10.82 µg/mL, the “IC90 (μg/ml) STA 29213” value [2, 9] is reported as 43.09 µg/mL and the “M. smegmatis IC90” value (M. Smegmatis ATCC607; [10]) is reported as 9.65 µg/mL.
With `CSc1nc2ccc(-c3ccccc3)cc2cc1C(/C(=C/CN(C)C)c1ccccc1)c1ccccc1` (stereo not shown) [Compound 20] the IC90 [1, 5] was 1.41 µg/mL (≈ 2.82 µM), the IC90 [2, 6] was 1.58 µg/mL (≈ 3.16 µM) and the IC90 (M. Smegmatis ATCC607; [7]) was 1.41 µg/mL (≈ 2.82 µM).
For `COc1nc2ccc(Br)cc2cc1C(C(=CCn1cncn1)c1ccccc1)c1ccccc1` (racemic) [Compound 47], the “M. smegmatis IC90” value (M. Smegmatis ATCC607; [10]) was 20.36 µg/mL.
In the case of `COc1ccc(/C(CCCCN2CCCCC2)=C(/c2ccc(Cl)cc2)c2cnc3ccccc3c2)cc1` [Compound 53], the IC90 [1, 3] is reported as 10.2 µg/mL (≈ 20 µM), the IC90 [2, 11] is reported as 9.09 µg/mL (≈ 17.8 µM) and the IC90 (M. Smegmatis ATCC607; [4]) is reported as 2.03 µg/mL (≈ 3.97 µM).
For `COc1nc2ccc(Br)cc2cc1C(C(=CCN1CCN(C)CC1)c1ccccc1)c1ccccc1` (racemic) [Compound 48], the “IC90 (μg/ml) SPN 6305” value [1, 8] was 2.72 µg/mL (≈ 5.01 µM), the “IC90 (μg/ml) STA 29213” value [2, 9] was 10.82 µg/mL (≈ 19.9 µM) and the “M. smegmatis IC90” value (M. Smegmatis ATCC607; [10]) was 1.72 µg/mL.
`CSc1nc2ccc(Br)cc2cc1C(/C(=C/CN(C)C)c1ccccc1)c1ccccc1` (stereo not shown) [Compound 4] gave an IC90 [1, 5] of 17.9 µg/mL (≈ 35.5 µM), an IC90 [2, 6] of 40 µg/mL (≈ 79.4 µM) and an IC90 (M. Smegmatis ATCC607; [7]) of 7.98 µg/mL (≈ 15.8 µM).
With `N#Cc1ccc(/C(=C(\CCCCN2CCCCC2)c2ccccc2)c2cnc3ccccc3c2)cc1` [Compound 54] the IC90 [1, 5] was 47.2 µg/mL (≈ 100 µM), the IC90 [2, 6] was 42 µg/mL (≈ 89.1 µM) and the IC90 (M. Smegmatis ATCC607; [7]) was 11.8 µg/mL (≈ 25.1 µM).
With `COc1ccc2nc(OC)c(C(C(=CCN(C)C)c3ccccc3)c3ccccc3)cc2c1` (racemic) [Compound 31] the “IC90 (μg/ml) SPN 6305” value [1, 8] was 7.8 µg/mL (≈ 17.8 µM), the “IC90 (μg/ml) STA 29213” value [2, 9] was 39.09 µg/mL (≈ 89.1 µM) and the “M. smegmatis IC90” value (M. Smegmatis ATCC607; [10]) was 6.95 µg/mL.
For `COc1nc2ccc(Br)cc2cc1C(/C(=C/CCCN1CCCN(C)CC1)c1ccc2ccccc2c1)c1ccccc1` (stereo not shown) [Compound 63], the IC90 [2, 11] was 2.25 µg/mL (≈ 3.55 µM) and the IC90 (M. Smegmatis ATCC607; [4]) was 3.57 µg/mL (≈ 5.63 µM).
